Read-outs that look alike come from different tables or passages of the source.

One data set can be described thus: clinical. The note with it: both, human, in vivo; for AUC(0-t) / AUC(0-inf) / Cmax: po, Least-Squares Means (LSM); for AUC(0-inf): AUCinf.
The mark [1] stands for this setting: Form A, plasma, Treatment A: one 10 mg/500 mg Lortab tablet + one 50 mg Colace capsule, single oral dose, fasting.
The mark [2] stands for this setting: Form A, plasma, Treatment A: Lortab 10 mg/500 mg + Colace 50 mg, single oral dose, fasting.
[3] abbreviates: Form B, plasma, Treatment B: Lortab 10 mg/500 mg alone, single oral dose, fasting.
Setting [4] is: Form C, plasma, Treatment C: Lortab 10 mg/500 mg + Colace 50 mg, single oral dose, fed.
[5] abbreviates: Form D, plasma, Treatment D: Lortab 10 mg/500 mg alone, single oral dose, fed.
Where [6] appears, read: plasma, fed vs fasting, Lortab + Colace co-administered, ln-transformed.
[7] abbreviates: plasma, fed vs fasting, Lortab administered alone, ln-transformed.
Where [8] appears, read: plasma, with docusate vs without, fasting, ln-transformed.
The mark [9] stands for this setting: plasma, with docusate vs without, fed, ln-transformed.

On to `CC(=O)Nc1ccc(O)cc1` [Acetaminophen, acetaminophen], for which the AUC(0-t) (in general, the area under the concentration-time curve up to a stated or last time point) in “clinical” (setting [1]) stood at 21000 ng·h/mL. In the data set “clinical” (Form B, plasma, Treatment B: one 10 mg/500 mg Lortab tablet alone, single oral dose, fasting), this compound registered an AUC(0-t) of 20700 ng·h/mL. In “clinical” (setting [2]), the area under the curve AUC(0-inf) (usually the area under the concentration-time curve extrapolated to infinity) was found to be 22700 ng·h/mL and the Cmax – broadly, the highest concentration seen after dosing – worked out at 5450 ng/mL. In the data set “clinical” (setting [3]), this compound came in with an AUC(0-inf) of 22000 ng·h/mL and a Cmax of 5920 ng/mL. Also, in “clinical” (setting [4]), the area under the curve AUC(0-inf) was determined as 21500 ng·h/mL and the Cmax is 3940 ng/mL. In “clinical” (setting [5]), the AUC(0-inf) turned out to be 21400 ng·h/mL and the peak level (Cmax) was 4020 ng/mL. In addition, the “effect of food on Cmax (rate of exposure)” value (shortened to “effect of food on Cmax”) (fed vs fasting) is “lowering the Cmax”. In addition, the “AUC 0-t, Least-Squares Means (LSM), Form D” value (plasma, Treatment D: one 10 mg/500 mg Lortab tablet alone, single oral dose, fed (30 min after start of standard breakfast)) turned out to be 19545.72 ng·h/mL. Also, under setting [6], the “AUC 0-t, Ratio of LSM (C/A)” value is reported as 93.5%; the “AUCinf, Ratio of LSM (C/A)” value came to 94.8%; the “Cmax, Ratio of LSM (C/A)” value worked out at 72.3%. Also, under setting [7], the “AUC 0-t, Ratio of LSM (D/B)” value amounted to 94.3%; the “AUCinf, Ratio of LSM (D/B)” value is 97.3%; the “Cmax, Ratio of LSM (D/B)” value is reported as 67.9%. Under setting [8], the “AUC 0-t, Ratio of LSM (A/B)” value is 101.4%; the “AUCinf, Ratio of LSM (A/B)” value is reported as 102.9%; the “Cmax, Ratio of LSM (A/B)” value was 92.0%. Also, under setting [9], the “AUC 0-t, Ratio of LSM (C/D)” value is 100.5%; the “AUCinf, Ratio of LSM (C/D)” value is reported as 100.3%; the “Cmax, Ratio of LSM (C/D)” value was determined as 97.9%. Further, for the setting “under fed and fasted conditions”, the “effect of docusate on the pharmacokinetics” value is listed as “no significant effect”.

`CCCCC(CC)COC(=O)CC(C(=O)OCC(CC)CCCC)S(=O)(=O)O` (stereo not shown) [Docusate, dioctyl sodium sulphosuccinate]: the AUC(0-t) in “clinical” (setting [1]) amounted to 1170 ng·h/mL. In addition, in the data set “clinical” (setting [2]), the AUC(0-inf) came out at 1170 ng·h/mL and the Cmax was 608 ng/mL. Moreover, in the data set “clinical” (setting [4]), the AUC(0-inf) stood at 1510 ng·h/mL and the Cmax was found to be 635 ng/mL. The “absorption of docusate (measurable plasma concentrations)” value (50 mg Colace capsule oral, throughout the period of blood sampling) is recorded as “absorbed in measurable amounts”. Moreover, under “fed vs fasting”, the “effect of food on Cmax” value is recorded as “not significantly affected by food”. For the same compound, under setting [6], the “AUC 0-t, Ratio of LSM (C/A)” value was determined as 124.2%; the “AUCinf, Ratio of LSM (C/A)” value is 128.8%; the “Cmax, Ratio of LSM (C/A)” value turned out to be 104.4%. Besides, where the note is “plasma, fed vs fasting, Lortab + Colace co-administered, ln-transformed, listed as docusate”, the “Cmax, Ratio of LSM (C/A)” value was 104.5%.

Take `COc1ccc2c3c1O[C@H]1C(=O)CC[C@H]4[C@@H](C2)N(C)CC[C@]314` [Hydrocodone, hydrocodone]: the Tmax (in general, the time at which the peak concentration occurs) in “clinical” was about 1 h. Moreover, in “clinical” (Form A), the AUC(0-t) came out at 135 ng·h/mL, the AUC(0-inf) was 162 ng·h/mL and the highest level (Cmax) was 24.3 ng/mL. In “clinical” (Form B), this compound returned an AUC(0-t) of 132 ng·h/mL, an AUC(0-inf) of 151 ng·h/mL and a Cmax of 24.2 ng/mL. In the data set “clinical” (Form C), the AUC(0-t) was determined as 142 ng·h/mL, the AUC(0-inf) was found to be 170 ng·h/mL and the highest level (Cmax) was 22.3 ng/mL. In addition, in the data set “clinical” (Form D), the AUC(0-t) came out at 146 ng·h/mL, the AUC(0-inf) amounted to 175 ng·h/mL and the Cmax turned out to be 22.9 ng/mL. Further, for the setting “both, human, in vivo”, the “AUC 0-t, Ratio of LSM (A/B)” value came to 102.5%; the “AUC 0-t, Ratio of LSM (C/A)” value was determined as 105.0%; the “AUC 0-t, Ratio of LSM (C/D)” value came to 97.4%; the “AUC 0-t, Ratio of LSM (D/B)” value is 110.6%. Where the note is “both, human, in vivo”, the “AUCinf, Ratio of LSM (A/B)” value is 107.2%; the “AUCinf, Ratio of LSM (C/A)” value was 105.0%; the “AUCinf, Ratio of LSM (C/D)” value is 97.4%; the “AUCinf, Ratio of LSM (D/B)” value was found to be 115.6%. Moreover, where the note is “both, human, in vivo”, the “Cmax, Ratio of LSM (A/B)” value is reported as 100.2%; the “Cmax, Ratio of LSM (C/A)” value is listed as 91.7%; the “Cmax, Ratio of LSM (C/D)” value is reported as 97.0%; the “Cmax, Ratio of LSM (D/B)” value turned out to be 94.6%. For the same compound, under “in vivo”, the “effect of docusate on the pharmacokinetics” value was “no significant effect”, the “effect of food on Cmax” value was “no significant effect” and the “effect of food on extent of exposure (AUC)” value was “no significant effect”.
